Source: US9499509B2, “Dihydrochalcone derivatives and their use as antibiotic agents” (UNIVERSITÉ DU QUÉBEC À CHICOUTIMI, priority 2012, dated 2016)
Counter-ions that a name gives are not always drawn. Like-named read-outs stand apart in the source and are kept apart here.

Test system: methicillin-resistant Staphylococcus aureus (MRSA) strains
Assay: Antibiotic assay (resazurin, Example 1), MRSA strains
Assay type: cell-based
Excerpt: Bacteria Strain. […] The MRSA were obtained as further described below.
Antibiotic agents. Cyprofloxacin and erythromycin were provided by Sigma-Aldrich. Gentamicin sulfate and vancomycin hydrochloride were provided by Calbiochem.
Isolation and identification of methicillin-resistant Staphylococcus aureus (MRSA) strains. From March 2007 to March 2008, 35 screening swabs from nares (n=31), throat (n=3), Groin pus (n=1) were obtained from patients hospitalized at Chicoutimi hospital. Identification of S. aureus was performed using the Slidex Staph-Kit (bioMerieux Vitek, Inc., Hazelwood, Mo.) according to the manufacturer's instructions. Quality control was performed with MRSA strain ATCC 43300 and S. aureus strain ATCC 25923. In addition, S. aureus profile was determined with API Staph test strip with bacterial suspension of saline McFarland of 0.5 (bioMerieux, Durham, N.C.) according to the manufacturer's protocol. API Staph strips were held for 24 h before the results were read. A latex agglutination (SLIDEX) test detecting methicilin resistance in Staphylococci based on the production of low-affinity PBP2a, which is encoded by the mecA gene was performed on all strains. An antibiogram was also performed to confirm the identification of MRSA strains using disk diffusion test.
Antibiotic susceptibility testing using disk diffusion method. The antimicrobial activity of different classes of antibiotics of the potential MRSA was determined by diffusion method (Kirby-Bauer) as described by NCCLS. The antibiotics tested included: penicillin (10 units), amoxicillin/clavulanic acid (20/10 μg), ciprofloxacin (5 μg), moxifloxacin (5 μg), levofloxacin (5 μg), clindamycin (15 μg), erythromycin (15 μg), cefoxitin (30 μg), linezolid (30 μg), trimethoprim/sulfomethoxazole (1.25/23.75 μg), rifampicin (5 μg), gentamicin (10 μg) and vancomycin (30 μg). The agar medium had pH 7.2 to 7.4 before inoculing potentiel MRSA. The antibiotics were maintained at 8° C. or lower −14° C. according to manufacturer's recommendations. The pure culture was inoculated on a non-selective plate for 18-24 h. Each colony was collected with a wire loop and transfered the growth to a tube containing 4 to 5 mL of a tryptic-soy broth. The inoculum density was standarized with BaSO4 using 0.5 McFarland standard. All strains were incubated at 37° C. until it achieves or exceeds the turbidity of 0.5 McFarland standard. Inoculation of the dried surface (Muller-Hinton agar plate) by streaking the swab over the entire sterile agar surface. This procedure was repeated two more times. After 15 min, the appropriate disk were applied on the surface with a sterile forceps. The inverted plates was placed in a incubator at 37° C./air/16 to 18 h or 24 h for vancomycin. The inhibition zones were measured with a millimetric ruler. Interpretation of zone sizes by references of the manufacturer. Quality control organisms used were ATCC strains number 25923.
MRSA. Ten (10) strains of MRSA obtained as described above were tested along with an S. aureus wild type (WT) strain (ATCC25923).

| SMILES | Minimum Inhibitory Concentration (MIC) (MRSA 1) | Minimum Inhibitory Concentration (MIC) (MRSA 3) | Minimum Inhibitory Concentration (MIC) (MRSA 4) | Minimum Inhibitory Concentration (MIC) (MRSA 5) | Minimum Inhibitory Concentration (MIC) (MRSA 6) | Minimum Inhibitory Concentration (MIC) (MRSA 7) | Minimum Inhibitory Concentration (MIC) (MRSA 8) | Minimum Inhibitory Concentration (MIC) (MRSA 9) | Minimum Inhibitory Concentration (MIC) (MRSA 10) | IC50 (MRSA 1, read-out: IC50) | Minimum Inhibitory Concentration (MIC) (MRSA 2) | IC50 (MRSA 2, read-out: IC50) | IC50 (MRSA 3, read-out: IC50) | IC50 (MRSA 4, read-out: IC50) | IC50 (MRSA 5, read-out: IC50) | IC50 (MRSA 6, read-out: IC50) | IC50 (MRSA 7, read-out: IC50) | IC50 (MRSA 8, read-out: IC50) | IC50 (MRSA 9, read-out: IC50) | IC50 (MRSA 10, read-out: IC50) | further results |
| --- | --- | --- | --- | --- | --- | --- | --- | --- | --- | --- | --- | --- | --- | --- | --- | --- | --- | --- | --- | --- | --- |
| O=C(O)c1cn(C2CC2)c2cc(N3CCNCC3)c(F)cc2c1=O [Ciprofloxacin, reference compound] | (>186) μM | (>186) μM | (>186) μM | (>186) μM | (>186) μM | (>186) μM | (>186) μM | (>186) μM | (>186) μM |  |  |  |  |  |  |  |  |  |  |  | IC50 (Staphylococcus aureus, MRSA, MRSA1, read-out: IC50): 102000 ± 6000 nM; IC50 (Staphylococcus aureus, MRSA, MRSA2, read-out: IC50): 156000 ± 11000 nM; MIC (Staphylococcus aureus, MRSA, MRSA2, read-out: Minimum Inhibitory Concentration (MIC)): > 186 µM; IC50 (Staphylococcus aureus, MRSA, MRSA3, read-out: IC50): > 186000 nM; IC50 (Staphylococcus aureus, MRSA, MRSA4, read-out: IC50): 134000 ± 7000 nM; IC50 (Staphylococcus aureus, MRSA, MRSA5, read-out: IC50): 109000 ± 4000 nM; IC50 (Staphylococcus aureus, MRSA, MRSA6, read-out: IC50): 131000 ± 9000 nM; IC50 (Staphylococcus aureus, MRSA, MRSA7, read-out: IC50): 128000 ± 9000 nM; IC50 (Staphylococcus aureus, MRSA, MRSA8, read-out: IC50): 119000 ± 9000 nM; IC50 (Staphylococcus aureus, MRSA, MRSA9, read-out: IC50): 106000 ± 11000 nM; IC50 (Staphylococcus aureus, MRSA, MRSA10, read-out: IC50): 122000 ± 16000 nM; IC50 (Staphylococcus aureus, MRSA, all MRSA strains, read-out: IC50 values against the MRSA strains): 100000 to 150000 nM |
| O=C(CCc1ccccc1)c1c(O)cc(O)c(C/C=C/c2ccc(O)cc2)c1O [Compound III] | (5.5) μM | (5.11) μM | (4.53) μM | (4.27) μM | (5.03) μM | (4.93) μM | (4.98) μM | (5.77) μM | (5.31) μM | 2400 ± 200 nM | (4.89) μM | 2300 ± 200 nM | 2200 ± 200 nM | 2200 ± 200 nM | 2300 ± 200 nM | 2200 ± 200 nM | 2400 ± 200 nM | 2200 ± 200 nM | 2300 ± 200 nM | 2800 ± 200 nM |  |
| COc1ccc(CCC(=O)c2c(O)cc(O)c(C/C=C/c3ccc(O)cc3)c2O)cc1 [Compound II] | (5.34) μM | (5.29) μM | (4.61) μM | (4.86) μM | (5.22) μM | (4.34) μM | (4.84) μM | (5.26) μM | (5.07) μM | 2500 ± 200 nM | (5.57) μM | 2600 ± 200 nM | 2600 ± 200 nM | 2400 ± 100 nM | 2300 ± 400 nM | 2300 ± 200 nM | 2500 ± 200 nM | 2300 ± 200 nM | 2500 ± 200 nM | 3200 ± 200 nM |  |
| COc1cc(O)c(C(=O)CCc2ccc(O)cc2)c(O)c1C/C=C/c1ccc(O)cc1 [Compound I] | (5.11) μM | (5.54) μM | (4.82) μM | (5.07) μM | (5.01) μM | (4.39) μM | (4.64) μM | (5.00) μM | (5.15) μM | 2200 ± 200 nM | (5.22) μM | 2200 ± 200 nM | 2100 ± 200 nM | 2100 ± 200 nM | 1700 ± 200 nM | 2000 ± 200 nM | 2100 ± 200 nM | 2100 ± 200 nM | 2300 ± 200 nM | 2600 ± 200 nM |  |
| CN[C@H](CC(C)C)C(=O)N[C@H]1C(=O)N[C@@H](CC(N)=O)C(=O)N[C@H]2C(=O)N[C@H]3C(=O)N[C@H](C(=O)N[C@H](C(=O)O)c4cc(O)cc(O)c4-c4cc3ccc4O)[C@H](O)c3ccc(c(Cl)c3)Oc3cc2cc(c3O[C@@H]2O[C@H](CO)[C@@H](O)[C@H](O)[C@H]2O[C@H]2C[C@](C)(N)[C@H](O)[C@H](C)O2)Oc2ccc(cc2Cl)[C@H]1O [Vancomycin, vancomycin hydrochloride, reference compound] |  |  |  |  |  |  |  |  |  |  |  |  |  |  |  |  |  |  |  |  | IC50 (Staphylococcus aureus, MRSA, MRSA1): 80 ± 10 nM; IC50 (Staphylococcus aureus, MRSA, MRSA2): 80 ± 10 nM; IC50 (Staphylococcus aureus, MRSA, MRSA3): 64 ± 7 nM; IC50 (Staphylococcus aureus, MRSA, MRSA4): 69 ± 9 nM; IC50 (Staphylococcus aureus, MRSA, MRSA5): 62 ± 6 nM; IC50 (Staphylococcus aureus, MRSA, MRSA6): 80 ± 10 nM; IC50 (Staphylococcus aureus, MRSA, MRSA7): 80 ± 10 nM; IC50 (Staphylococcus aureus, MRSA, MRSA8): 80 ± 10 nM; IC50 (Staphylococcus aureus, MRSA, MRSA9): 80 ± 10 nM; IC50 (Staphylococcus aureus, MRSA, MRSA10): 59 ± 6 nM; MIC (Staphylococcus aureus, MRSA, read-out: Minimum Inhibitory Concentration (MIC), MRSA1): 0.12 µM; MIC (Staphylococcus aureus, MRSA, read-out: Minimum Inhibitory Concentration (MIC), MRSA2): 0.13 µM; MIC (Staphylococcus aureus, MRSA, read-out: Minimum Inhibitory Concentration (MIC), MRSA3): 0.1 µM; MIC (Staphylococcus aureus, MRSA, read-out: Minimum Inhibitory Concentration (MIC), MRSA4): 0.1 µM; MIC (Staphylococcus aureus, MRSA, read-out: Minimum Inhibitory Concentration (MIC), MRSA5): 0.09 µM; MIC (Staphylococcus aureus, MRSA, read-out: Minimum Inhibitory Concentration (MIC), MRSA6): 0.2 µM; MIC (Staphylococcus aureus, MRSA, read-out: Minimum Inhibitory Concentration (MIC), MRSA7): 0.11 µM; MIC (Staphylococcus aureus, MRSA, read-out: Minimum Inhibitory Concentration (MIC), MRSA8): 0.11 µM; MIC (Staphylococcus aureus, MRSA, read-out: Minimum Inhibitory Concentration (MIC), MRSA9): 0.11 µM; MIC (Staphylococcus aureus, MRSA, read-out: Minimum Inhibitory Concentration (MIC), MRSA10): 0.09 µM |
